Laboratory results published in paper PMC7188713, “Phase 1 study of napabucasin, a cancer stemness inhibitor, in patients with advanced solid tumors” (Cancer Chemotherapy and Pharmacology, 2020).
Like-named read-outs stand apart in the source and are kept apart here. Marks after values point to notes of the source that are not given here.

How the values were obtained:
CSCs = tested on: CSCs; parameters: method as in PMID 25605917; details: cited from earlier work
[1] = parameters: method as in doi:10.1200/JCO.2018.36.15_suppl.4110, doi:10.1200/JCO.2017.35.4_suppl.593; details: napabucasin 240 mg BID in combination with standard treatment; cited from earlier work
[2] = Plasma and urine pharmacokinetics of napabucasin in patients; assay type: in vivo, Japanese patients; details: for AUC(0-t) / AUC(0-inf) / Cmax / half-life / Tmax: human, oral; for AUC(0-t) / AUC(0-inf) / Cmax / half-life / Tmax / CL/F, range / CL/F, range (apparent total clearance at steady state): plasma; for AUC(0-inf): read-out: AUC0–∞, range; for Cmax: read-out: Cmax, range; for half-life: read-out: t1/2, range; for Tmax: read-out: tmax, range
Description: Blood samples for PK were obtained on Days 1, 2, 8, and 15 of Cycle 1 and Days 29 and 30 of Cycle 2. On Day 1 of Cycle 1 and Day 29 of Cycle 2, blood samples were collected before the morning dose and at 2, 4, 6, 8, 10, 12, and 24 h after the morning dose of napabucasin; for samples collected 24 h following the morning dose of napabucasin on Day 1 and Day 29, collection occurred before the morning dose was administered on Day 2 and Day 30, respectively. On Days 8 and 15 of Cycle 1, blood samples were taken 168 and 336 h after the morning dose on Day 1. Urine samples were taken on Days 1 and 2 of Cycle 1 and Days 29 and 30 of Cycle 2. Samples were collected immediately after the morning dose on Days 1 and 29 through to immediately before the morning dose the next day. Plasma napabucasin concentration was measured by Frontage Laboratories and CMIC Pharma Science Co., Ltd and urine napabucasin concentration was measured by CMIC Pharma Science Co., Ltd.
The safety and antitumor activity (intention-to-treat [ITT]) analysis populations included all patients that received at least one dose of napabucasin. The DLT analysis population included all patients that received at least one dose of napabucasin with at least 80% compliance ([number of capsules actually ingested/number of capsules that should have been ingested per dose […]] × 100) during the DLT evaluation period, and those patients who experienced DLT during the evaluation period regardless of compliance. The PK population included all patients that received at least one dose of napabucasin and had plasma napabucasin concentration data for at least one-time point after the first dose of napabucasin.

advanced cancer = details: cited from earlier work
[3] = tested on: NAD(P)H: quinone oxidoreductase-1; parameters: method as in PMID 31527169; details: results in redox cycling and ROS generation; cited from earlier work
colorectal cancer = tested on: colorectal cancer; parameters: method as in PMID 29397354; details: cited from earlier work
[4] = tested on: phosphorylated STAT3 (pSTAT3); assay: pSTAT3 IHC staining of tumor samples; assay type: in vivo, Japanese patients; details: one colorectal cancer patient
Description: Assessments of antitumor activity were objective tumor response, median progression-free survival (PFS) and median overall survival (OS). Tumor response was evaluated according to RECIST 1.1 [21]. Median PFS was defined as the time from the day of the first dose of napabucasin to the date of progressive disease (PD), if neither was observed, the patient was to be censored at the last assessment of tumor response. Median OS was defined as the time from the first dose of napabucasin to the date of death from any cause. Patients who were still alive at the final observation were to be censored at the date they were last known to be alive. STAT3 single nucleotide polymorphism (SNP) genotyping was carried out using DNA extracted from whole blood samples to assess tumor response, median PFS, and median OS. Immunohistochemistry (IHC), mutation analysis (Oncomine Comprehensive Assay), and microsatellite instability analyses were performed in tumor tissue samples obtained from patients who provided additional consent to assess the relationship between specific biomarkers and the antitumor activity of napabucasin. IHC staining of phosphorylated STAT3 (pSTAT3) was carried out on archived tumor samples which were collected pre-treatment, and de novo lesions during and post-treatment were also collected, according to the protocol of a recent Phase 3 study. Positive pSTAT3 staining was defined as cancer cell nuclear staining ≥ 5% plus a stroma staining score of at least 2. The biomarker testing facility was responsible for IHC staining and storage of tumor samples. If consent to a genetic test was withdrawn, samples and associated analyses were discarded.

prostate cancer cell = tested on: prostate cancer cell; parameters: method as in PMID 26899963; details: in vitro; cited from earlier work
[5] = 240 mg, Cycle 1 (Day 1), Cohort 1 (480 mg/day, 240 mg BID), n = 3
[6] = 240 mg, Cycle 2 (Day 29), Cohort 1 (480 mg/day, 240 mg BID), n = 3
[7] = 480 mg, Cycle 1 (Day 1), Cohort 2 (960 mg/day, 480 mg BID), n = 4
[8] = 480 mg, Cycle 2 (Day 29), Cohort 2 (960 mg/day, 480 mg BID), n = 3
[9] = 720 mg, Cycle 1 (Day 1), Cohort 3 (1440 mg/day, 720 mg BID), n = 7
[10] = 720 mg, Cycle 2 (Day 29), Cohort 3 (1440 mg/day, 720 mg BID), n = 5
[11] = Post-napabucasin: Day 26 from the first dose, treatment ongoing

SMILES: CC(=O)c1cc2c(o1)C(=O)c1ccccc1C2=O [napabucasin]
- Selectivity for CSCs (CSCs): selectively targets CSCs, leaving normal hematopoietic stem cells unaffected
- DLTs [1]: no DLTs
- AUC(0-t) ([2]; 240 mg, Cycle 1 (Day 1), Cohort 1 (480 mg/day, 240 mg BID), n = 3, read-out: AUC0–12, range): 1370 to 2990 ng·h/mL
- AUC(0-t) ([2]; 240 mg, Cycle 1 (Day 1), Cohort 1 (480 mg/day, 240 mg BID), n = 3, read-out: AUC0–24, range): 2020 to 3800 ng·h/mL
- AUC(0-inf) [2, 5]: 3650 to 4060 ng·h/mL
- Cmax [2, 5]: 194 to 468 ng/mL
- half-life [2, 5]: 300 to 1500 min
- Tmax [2, 5]: 4 to 6 h
- AUC(0-t) ([2]; 240 mg, Cycle 2 (Day 29), Cohort 1 (480 mg/day, 240 mg BID), n = 3, read-out: AUC0–12, range): 2190 to 4940 ng·h/mL
- AUC(0-t) ([2]; 240 mg, Cycle 2 (Day 29), Cohort 1 (480 mg/day, 240 mg BID), n = 3, read-out: AUC0–24, range): 2510 to 6180 ng·h/mL
- AUC(0-inf) [2, 6]: 2570 to 6370 ng·h/mL
- Cmax [2, 6]: 472 to 652 ng/mL
- half-life [2, 6]: 240 to 300 min
- Tmax [2, 6]: 4 to 10 h
- AUC(0-t) ([2]; 480 mg, Cycle 1 (Day 1), Cohort 2 (960 mg/day, 480 mg BID), n = 4, read-out: AUC0–12, range): 984 to 4780 ng·h/mL
- AUC(0-t) ([2]; 480 mg, Cycle 1 (Day 1), Cohort 2 (960 mg/day, 480 mg BID), n = 4, read-out: AUC0–24, range): 1200 to 6360 ng·h/mL
- AUC(0-inf) [2, 7]: 1410 to 7360 ng·h/mL
- Cmax [2, 7]: 199 to 719 ng/mL
- half-life [2, 7]: 420 to 480 min
- Tmax [2, 7]: 2 to 6 h
- AUC(0-t) ([2]; 480 mg, Cycle 2 (Day 29), Cohort 2 (960 mg/day, 480 mg BID), n = 3, read-out: AUC0–12, range): 2560 to 2760 ng·h/mL
- AUC(0-t) ([2]; 480 mg, Cycle 2 (Day 29), Cohort 2 (960 mg/day, 480 mg BID), n = 3, read-out: AUC0–24, range): 2750 to 2880 ng·h/mL
- AUC(0-inf) [2, 8]: 2750 to 2880 ng·h/mL
- Cmax [2, 8]: 391 to 477 ng/mL
- half-life [2, 8]: 120 to 180 min
- Tmax [2, 8]: 2 to 10 h
- AUC(0-t) ([2]; 720 mg, Cycle 1 (Day 1), Cohort 3 (1440 mg/day, 720 mg BID), n = 7, read-out: AUC0–12, range): 3440 to 11000 ng·h/mL
- AUC(0-t) ([2]; 720 mg, Cycle 1 (Day 1), Cohort 3 (1440 mg/day, 720 mg BID), n = 7, read-out: AUC0–24, range): 3920 to 14500 ng·h/mL
- AUC(0-inf) [2, 9]: 3870 to 14800 ng·h/mL
- Cmax [2, 9]: 641 to 2070 ng/mL
- half-life [2, 9]: 180 to 720 min
- Tmax [2, 9]: 2 to 6 h
- AUC(0-t) ([2]; 720 mg, Cycle 2 (Day 29), Cohort 3 (1440 mg/day, 720 mg BID), n = 5, read-out: AUC0–12, range): 3650 to 15400 ng·h/mL
- AUC(0-t) ([2]; 720 mg, Cycle 2 (Day 29), Cohort 3 (1440 mg/day, 720 mg BID), n = 5, read-out: AUC0–24, range): 4480 to 20200 ng·h/mL
- AUC(0-inf) [2, 10]: 4740 to 123000 ng·h/mL
- Cmax [2, 10]: 596 to 1930 ng/mL
- half-life [2, 10]: 300 to 11500 min
- Tmax [2, 10]: 2 to 4 h
- Difference in Cmax and AUC0–12 between doses ([2]; plasma, 480, 960, 1440 mg/day): no clear difference between doses
- CL/F, range ([2]; Cycle 1 (Day 1), Cohort 1 (480 mg/day, 240 mg BID), n = 3): 59 to 66 L/h
- CL/F, range ([2]; Cycle 1 (Day 1), Cohort 2 (960 mg/day, 480 mg BID), n = 4): 65 to 341 L/h
- CL/F, range ([2]; Cycle 1 (Day 1), Cohort 3 (1440 mg/day, 720 mg BID), n = 7): 49 to 186 L/h
- CL/F, range (apparent total clearance at steady state) ([2]; Cycle 2 (Day 29), Cohort 1 (480 mg/day, 240 mg BID), n = 3): 49–109^a L/h
- CL/F, range (apparent total clearance at steady state) ([2]; Cycle 2 (Day 29), Cohort 2 (960 mg/day, 480 mg BID), n = 3): 174–188^a L/h
- CL/F, range (apparent total clearance at steady state) ([2]; Cycle 2 (Day 29), Cohort 3 (1440 mg/day, 720 mg BID), n = 5): 47–197^a L/h
- Accumulation in plasma ([2]; repeated BID dosing, Cycle 1 to Cycle 2): no abnormal accumulation was observed
- Difference in urinary PK between cohorts ([2]; urine, 480, 960, 1440 mg/day): no clear differences were observed between cohorts
- Dose up to which napabucasin was well tolerated (advanced cancer; 14 cohorts, N = 41): up to 2000 mg/day
- Patients with SD as the best response (advanced cancer; Phase 1 dose-escalation study): 65%
- Bioactivation [3]: bioactivated by NAD(P)H: quinone oxidoreductase-1
- Patients who achieved SD (colorectal cancer): 12%
- pSTAT3 status ([4]; post-napabucasin (during treatment), positive = nuclear staining ≥ 5% plus stroma score at least 2): positive
- % Nuclear tumor positive (pSTAT3 IHC) [4, 11]: 10%
- H-score (pSTAT3 IHC) [4, 11]: 15
- Microenvironment % positive (pSTAT3 IHC) [4, 11]: 50%
- Microenvironment intensity (pSTAT3 IHC) [4, 11]: 2
- Percent nuclear tumor staining 0 (pSTAT3 IHC) [4, 11]: 90%
- Percent nuclear tumor staining 1 + (pSTAT3 IHC) [4, 11]: 5%
- Percent nuclear tumor staining 2 + (pSTAT3 IHC) [4, 11]: 5%
- Percent nuclear tumor staining 3 + (pSTAT3 IHC) [4, 11]: 0%
- Effect on prostate cancer cells (prostate cancer cell): inhibited prostate cancer cell survival, motility, and tumorigenesis in vitro
